Laboratory results published in ChEMBL document CHEMBL1201862, “PubChem BioAssay data set” (2004).
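Growth conditions: 96-well plates. Treatment: test compound, 48 hours, 5 concentrations. Analysis: linear interpolation between bracketing concentrations; unreached endpoints set to highest concentration. Here, GI50 denotes the concentration required for 50% inhibition of growth.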 Calls of active or inactive are those of the source. Cut-off read from the data, not from the text of the source: active = GI50 up to about 1.1 µM and inactive = higher.

Legend:
Assay in all cases: growth of human tumour cells (NCI), 48 h
786-0 = tested on: 786-0
A498 = tested on: A498
CCRF-CEM = tested on: CCRF-CEM
COLO 205 = tested on: COLO 205
DU-145 = tested on: DU-145
HCC 2998 = tested on: HCC 2998
HOP-92 = tested on: HOP-92
IGROV-1 = tested on: IGROV-1
LOX IMVI = tested on: LOX IMVI
LXFL 529 = tested on: LXFL 529
M14 = tested on: M14
MOLT-4 = tested on: MOLT-4
NCI-H226 = tested on: NCI-H226
NCI-H23 = tested on: NCI-H23
SF-539 = tested on: SF-539
SK-MEL-28 = tested on: SK-MEL-28
SNB-75 = tested on: SNB-75
UO-31 = tested on: UO-31

Measured: GI50

C=C(CN(C)C)C(=O)c1ccc(C(=O)C(=C)CN(C)C)cc1
inactive: 786-0 > 100 µM | A498 > 100 µM | CCRF-CEM > 100 µM | COLO 205 > 100 µM | DU-145 > 100 µM | HCC 2998 > 100 µM | HOP-92 > 100 µM | IGROV-1 > 100 µM | LOX IMVI > 100 µM | LXFL 529 > 100 µM | M14 > 100 µM | MOLT-4 > 100 µM | NCI-H226 > 100 µM | NCI-H23 > 100 µM | SF-539 > 100 µM | SK-MEL-28 > 100 µM | SNB-75 > 100 µM | UO-31 > 100 µM

COC(=O)C1CC(C(=O)OC)c2nc3cc([N+](=O)[O-])ccc3nc21 (centres undefined)
inactive: 786-0 > 87.9 µM | A498 > 100 µM | CCRF-CEM 9.53 µM | COLO 205 49.1 µM | HCC 2998 30.5 µM | HOP-92 > 100 µM | IGROV-1 80.7 µM | LOX IMVI 22.3 µM | LXFL 529 36.9 µM | M14 39 µM | MOLT-4 19.4 µM | NCI-H226 > 100 µM | NCI-H23 > 61.5 µM | SF-539 41 µM | SK-MEL-28 > 77.3 µM | SNB-75 > 61 µM | UO-31 33.7 µM

CC(=O)Oc1cc2c(=O)oc3c(OC(C)=O)c(OC(C)=O)c(OC(C)=O)c4c(=O)oc(c1OC(C)=O)c2c34
inactive: 786-0 38 µM | A498 65 µM | CCRF-CEM 19.2 µM | COLO 205 59 µM | HCC 2998 > 100 µM | HOP-92 25.2 µM | IGROV-1 > 100 µM | LOX IMVI 15.6 µM | LXFL 529 > 100 µM | M14 36.6 µM | MOLT-4 58.7 µM | NCI-H226 43.9 µM | NCI-H23 > 100 µM | SF-539 24.8 µM | SK-MEL-28 32.7 µM | SNB-75 45.9 µM | UO-31 97.7 µM

CC1=NN(C(=O)CC(=O)Nc2ccccc2)C(=O)C1/N=N/c1ccc(S(N)(=O)=O)cc1 (centres undefined)
inactive: 786-0 66.5 µM | A498 > 100 µM | CCRF-CEM 46 µM | COLO 205 > 100 µM | HCC 2998 49.9 µM | HOP-92 > 100 µM | IGROV-1 34.7 µM | LOX IMVI 75.5 µM | LXFL 529 81.7 µM | M14 80.2 µM | MOLT-4 37.5 µM | NCI-H226 39.1 µM | NCI-H23 78 µM | SF-539 99.8 µM | SK-MEL-28 61.4 µM | SNB-75 60.8 µM | UO-31 57.8 µM
